{
  "source": "paper PMC8894198",
  "about": "“Biosynthetic Microcin J25 Exerts Strong Antibacterial, Anti-Inflammatory Activities, Low Cytotoxicity Without Increasing Drug-Resistance to Bacteria Target” (Frontiers in Immunology, 2022)",
  "key": {"S. pullorum CVCC1791": {"tested_on": "S. pullorum CVCC1791", "test": "MIC broth dilution, standard strain", "format": "cell-based, Salmonella pullorum", "conditions": "lowest MIC value, highly sensitive standard strain", "procedure": "The minimum inhibitory concentration (MIC) refers to the lowest concentration that can produce a significant hindrance to bacterial growth in a drug sensitivity test by adopting a broth dilution, with certain refinements and modifications based on the previous description ([25], [26]). In short, MccJ25 was dissolved in sterilized distilled water (SDW), serial 2-fold dilutions were prepared in Mueller-Hinton broth (MHB) through a 96-well microtiter plate, and the final concentration of MccJ25 was maintained in the range of 0.003125 to 256 μg/mL. Then, 2 μL of standard and clinically relevant overnight broth cultures of bacteria were inoculated into each well at a concentration of 5 × 10^6 CFU/mL. Microtiter plates were incubated at 37°C for one full day. Two groups were set up: positive (medium with inoculum) and negative (medium only) controls. The minimum bactericidal concentration (MBC) was measured in LB medium and refers to the first drug dilution value at which the initial bacterial concentration was reduced by 99.99%. The final analysis was determined by the results of three replicated and independent experiments. To further assess and clarify the antimicrobial activity of MccJ25, the protective ability against E. coli adhesion, live/dead assay, and killing curve were performed, the detailed methods were provided in Supplementary Materials ."}, "E. coli K88": {"tested_on": "E. coli K88", "test": "Electron microscopy (SEM, TEM) of treated bacteria", "format": "cell-based", "procedure": "Scanning electron microscope (SEM) was performed to test the morphological features of E. coli K88 cells by comparing cells incubated in the absence (control) or presence of MccJ25. For SEM sample preparation, the standard protocol was used based on our previous report ([26]) with slight modifications. Overnight E. coli K88 cultures were inoculated and grown to the mid-logarithmic phase in the fresh LB medium at 37°C for 2 h, then harvested by centrifugation, washed twice with PBS and re-suspended in the same buffer. Approximately 2 × 10^7 cells were incubated with 1 and 2 × MIC MccJ25 at 37°C for 1 h. Thereafter, cells were pooled and centrifuged at 5000 g for 5 min. Bacterial pellets were washed 3 times with PBS and centrifuged after each wash. Cells were fixed with 2.5% glutaraldehyde at 4°C overnight and washed 2 times with PBS. They were then harvested, post-fixed with 1% osmium tetroxide for 1 h and dehydrated for 15 min each in a graded ethanol series (50, 70, 80, 90, 95 and 100%). Cells were then treated with absolute acetone for 20 min, a mixture of alcohol and iso-amyl acetate (1:1) for 30 min and pure iso-amyl acetate for 1 h. Lastly, samples were dehydrated in a critical point dryer (Model HCP-2, Hitachi, Chiyoda-ku, Tokyo, Japan) with liquid CO2. The dehydrated samples were coated with gold-palladium and observed by SEM (Model EVO MA10 XVP, Carl Zeiss, Jena, GmbH, Germany). […]"}, "[1]": {"tested_on": "E. coli O111:B4 LPS-challenged BALB/c mice", "test": "LPS-challenged mice experiment (septicemia model)", "format": "in vivo", "conditions": "LPS 15 mg/kg i.p.; MccJ25 4.55 and 9.1 mg/kg BW; followed 72 h"}},
  "note": "Where a SMILES comes first, the peptide text is derived from it. Bridges are numbered along the chain shown (N, C = ends).",
  "data": [
    {"smiles": "CC[C@H](C)[C@H](NC(=O)CNC(=O)[C@@H](NC(=O)[C@H](Cc1ccccc1)NC(=O)[C@H](Cc1ccc(O)cc1)NC(=O)[C@@H]1CCC(=O)NCC(=O)NCC(=O)N[C@@H](C)C(=O)NCC(=O)N[C@@H](Cc2c[nH]cn2)C(=O)N[C@@H](C(C)C)C(=O)N2CCC[C@H]2C(=O)N1)C(C)C)C(=O)NCC(=O)N[C@H](C(=O)N1CCC[C@H]1C(=O)N[C@H](C(=O)N[C@@H](CO)C(=O)N[C@@H](Cc1ccccc1)C(=O)N[C@@H](Cc1ccc(O)cc1)C(=O)NCC(=O)O)[C@@H](C)CC)[C@@H](C)O", "note": "[MccJ25, microcin J25] (GGAGHVPEYFVGIGTPISFYG-OH; lactam N-8 (inferred); C-terminus assumed)", "values": [
      {"measurement": "MIC", "setting": "S. pullorum CVCC1791", "value": 0.03, "unit": "mg/L"},
      {"measurement": "cell morphology by SEM", "setting": "E. coli K88; 1 × and 2 × MIC, 60 min", "value": "filamentous and elongated"},
      {"measurement": "cell membranes by TEM", "setting": "E. coli K88; 1 ×, 2 × and 4 × MIC, 0.5 and 1 h", "value": "disrupted"},
      {"measurement": "survival rate", "setting": "[1]", "value": "increased"}
    ]}
  ]
}
